Laboratory results reported in patent publication US6787541B1, “Thieno-and furopyrimidine derivatives as A2A-receptor antagonists” (Vernalis Research Limited, priority 1999, dated 2004).

Experiments:
[1] = target: T1, human adenosine A2A receptors expressed in HEK-293 cells (Homo sapiens, UniProt P29274); assay: Binding affinities at hA2A receptors, displacement of [3H]-CGS 21680
T1 construct: expressed in transfected cells; host or cells: HEK-293 cells

[2] = tested on: haloperidol-induced deficits in locomotor activity in mice; assay: Haloperidol-induced hypolocomotion model; format: in vivo; conditions: intraperitoneally at a dose of 10 mg/kg
Text: Haloperidol-induced Hypolocomotion Model
This approach is also considered a valid method for screening drugs with potential antiparkinsonian effects. Thus, the ability of novel adenosine antagonists to block haloperidol-induced deficits in locomotor activity in mice can be used to assess both in vivo and potential antiparkinsonian efficacy.
Female TO mice (25-30 g) obtained from TUCK, UK, are used for all experiments. Animals are housed in groups of 8 [cage size—40 (width)×40 (length)×20 (height)cm] under 12 hr light/dark cycle (lights on 08:00 hr), in a temperature (20±2° C.) and humidity (55±15%) controlled environment. Animals have free access to food and water, and are allowed at least 7 days to acclimatize after delivery before experimental use.
Liquid injectable haloperidol (1 ml Serenance ampoules from Baker Norton, Harlow, Essex, each containing haloperidol BP 5 mg, batch # P424) are diluted to a final concentration of 0.02 mg/ml using saline. Test compounds are typically prepared as aqueous suspensions in 8% Tween. […]
1.5 hours before testing, mice are administered 0.2 mg/kg haloperidol, a dose that reduces baseline locomotor activity by at least 50%. […] Horizontal locomotor activity is determined by placing the cages within a frame containing a 3×6 array of photocells linked to a computer, which tabulates beam breaks. […]

cataleptic responses = conditions: cited from earlier work
Parkinsonian patients = conditions: cited from earlier work

T1 sequence (P29274 whole entry): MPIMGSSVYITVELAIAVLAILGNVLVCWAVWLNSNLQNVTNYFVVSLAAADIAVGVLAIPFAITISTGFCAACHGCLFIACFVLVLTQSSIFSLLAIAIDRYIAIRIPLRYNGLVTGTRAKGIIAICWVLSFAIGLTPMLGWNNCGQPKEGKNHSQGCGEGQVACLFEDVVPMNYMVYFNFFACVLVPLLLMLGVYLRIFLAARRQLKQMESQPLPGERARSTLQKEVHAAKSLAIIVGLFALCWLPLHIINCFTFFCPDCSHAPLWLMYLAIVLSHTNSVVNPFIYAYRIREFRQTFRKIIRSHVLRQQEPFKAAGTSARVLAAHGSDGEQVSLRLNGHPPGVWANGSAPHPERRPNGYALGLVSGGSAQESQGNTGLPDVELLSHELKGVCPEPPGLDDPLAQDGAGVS

Row | SMILES | Ki [1] [nM] | melting point | also measured
1 | C=CCNc1nc(C(=O)c2cccs2)c2sccc2n1 [Example 59, 2-Allylaminothieno[3,2-d]pyrimidin-4-yl 2-thienylmethanone] | 18 | 142.1 to 142.9 °C | 
2 | CCCc1nc(C(C#N)c2ccccn2)c2sccc2n1 (stereo not drawn) [Example 60, 2-n-Propyl-α-(2-pyridyl)thieno[3,2-d]pyrmidine-4-acetonitrile] | 237 | 185 to 187 °C | 
3 | CC(C)Nc1nc(C(=O)c2cccs2)c2sccc2n1 [Example 61, 2-Isopropylaminothieno[3,2-d]pyrimidin-4-yl 2-thienylmethanone] | 21 | 134.8 to 135.6 °C | 
4 | CCCc1nc(C(=O)c2cccs2)c2sccc2n1 [Example 63, 2-n-Propylthieno[3,2-d]pyrimidin-4-yl 2-thienylmethanone] | 37 | 122 to 125 °C | 
5 | Cc1nc(C(C#N)c2ccccn2)c2sccc2n1 (stereo not drawn) [Example 64, 2-Methyl-α-(2-pyridyl)thieno[3,2-d]pyrimidine-4-acetonitrile] | 529 | 266 to 269 °C | 
6 | COCCNc1nc(C(=O)c2cccs2)c2sccc2n1 [Example 65, 2-(2-Methoxyethylamino)thieno[3,2-d]pyrimidin-4-yl 2-thienylmethanone] | 21 | 135.6 to 135.9 °C | 
7 | COc1ccc(C(=O)c2nc(C(F)(F)F)nc3ccsc23)s1 [Example 68, 5-Methoxy-2-thienyl 2-trifluoromethylthieno[3,2-d]pyrimidin-4-ylmethanone] | 105 | 160 to 162 °C | 
8 | O=C(c1cccs1)c1nc(N2CCC(O)CC2)nc2ccsc12 [Example 86, 2-(4-Hydroxypiperidin-1-yl)thieno[3,2-d]pyrimidin-4-yl 2-thienylmethanone] |  |  | reversal of haloperidol-induced hypolocomotion [2]: significantly reversed
9 | CCCn1c(=O)c2c(nc(/C=C/c3ccc(OC)c(OC)c3)n2C)n(CCC)c1=O [KF 17837, (E)-8-(3,4-dimethoxystyryl)-1,3-dipropyl-7-methylxanthine] |  |  | anticataleptic effects of a subthreshold dose of L-DOPA plus benserazide (cataleptic responses; in vivo): potentiated; catalepsy induced by haloperidol and reserpine (cataleptic responses; in vivo): reduced; cataleptic responses induced by intracerebroventricular administration of CGS 21680 (cataleptic responses; oral administration): significantly ameliorated
10 | Cn1c(=O)c2[nH]cnc2n(C)c1=O [theophylline, 1,3-dimethylxanthine] |  |  | mean objective disability scores (Parkinsonian patients; 15 Parkinsonian patients, up to 12 weeks, 150 mg/day oral): significant improvements; patients reporting moderate or marked subjective improvement (Parkinsonian patients; of 15 Parkinsonian patients, up to 12 weeks, 150 mg/day oral): 11; serum theophylline levels (Parkinsonian patients; slow release oral theophylline preparation 150 mg/day, after one week): 4.44 mg/L

More lines, main results first:

Row | Ki [1] [nM] | melting point | SMILES | also measured
11 | 126 | 114.1 to 114.9 °C | O=C(c1ccccc1)c1nc(NCCO)nc2ccsc12 [Example 72, 2-(2-Hydroxyethylamino)thieno[3,2-d]pyrimidin-4-yl phenylmethanone] | 
12 | 48 | 164.6 to 165.4 °C | CCOc1nc(C(=O)c2cccs2)c2sccc2n1 [Example 73, 2-Ethoxythieno[3,2-d]pyrimidin-4-yl 2-thienylmethanone] | 
13 | 90 | 185 to 186 °C | Cc1cc(C(=O)c2nc(C(F)(F)F)nc3ccsc23)oc1C [Example 74, 4,5-Dimethyl-2-furyl 2-trifluoromethylthieno[3,2-d]pyrimidin-4-ylmethanone] | 
14 | 8 | 143.3 to 143.7 °C | CCOC(=O)CCCNc1nc(C(=O)c2cccs2)c2sccc2n1 [Example 76, Ethyl 4-(4-(2-thienylcarbonyl)thieno[3,2-d]pyrimidin-2-ylamino)butanoate] | 
15 | 97 | 199.9 to 200.5 °C | O=C(c1cccs1)c1nc(N2CCOCC2)nc2ccsc12 [Example 77, 2-(4-Morpholinyl)thieno[3,2-d]pyrimidin-4-yl 2-thienylmethanone] | 
16 | 46 | > 120 °C (dec.) | O=C(c1cccs1)c1nc(NCCN2CCOCC2)nc2ccsc12 [Example 78, 2-(2-(4-Morpholinyl)ethylamino)thieno[3,2-d]pyrimidin-4-yl 2-thienylmethanone] | 
17 | 8 | 178.6 to 179.3 °C | O=C(c1cccs1)c1nc(NCc2ccccn2)nc2ccsc12 [Example 95, 2-(2-Pyridylmethylamino)thieno[3,2-d]pyrimidin-4-yl 2-thienylmethanone] | 
18 | 7 | 194.5 to 195 °C | Cc1ccsc1C(=O)c1nc(NCCO)nc2ccsc12 [Example 118, 2-(2-Hydroxyethylamino)thieno[3,2-d]pyrimidin-4-yl 3-methyl-2-thienylmethanone] | 
